Converted amounts (≈) assume the structure as drawn.
Assays:
305 kinases = assay: Carna Biosciences kinome profile at 100 nM; format: biochemical; conditions: in duplicate
A549 NSCLC cells = assay: soft agar colony formation, A549; format: cell-based; conditions: 2 weeks, negative control 20 at 300 nM
Molm-14 AML cells = assay: soft agar colony formation, Molm-14; format: cell-based; conditions: 2 weeks, negative control 20 at 50 nM
Mer = biological target: T1, Mer (Homo sapiens, UniProt Q12866); assay: pharmacodynamic study: Mer phosphorylation in bone marrow leukemia cells in vivo; design: species or system NOD/SCID/gamma mice with 697 human leukemia xenografts; conditions: single 3 mg/kg oral dose, 30 min after dosing
T1 sequence (Q12866 21-999): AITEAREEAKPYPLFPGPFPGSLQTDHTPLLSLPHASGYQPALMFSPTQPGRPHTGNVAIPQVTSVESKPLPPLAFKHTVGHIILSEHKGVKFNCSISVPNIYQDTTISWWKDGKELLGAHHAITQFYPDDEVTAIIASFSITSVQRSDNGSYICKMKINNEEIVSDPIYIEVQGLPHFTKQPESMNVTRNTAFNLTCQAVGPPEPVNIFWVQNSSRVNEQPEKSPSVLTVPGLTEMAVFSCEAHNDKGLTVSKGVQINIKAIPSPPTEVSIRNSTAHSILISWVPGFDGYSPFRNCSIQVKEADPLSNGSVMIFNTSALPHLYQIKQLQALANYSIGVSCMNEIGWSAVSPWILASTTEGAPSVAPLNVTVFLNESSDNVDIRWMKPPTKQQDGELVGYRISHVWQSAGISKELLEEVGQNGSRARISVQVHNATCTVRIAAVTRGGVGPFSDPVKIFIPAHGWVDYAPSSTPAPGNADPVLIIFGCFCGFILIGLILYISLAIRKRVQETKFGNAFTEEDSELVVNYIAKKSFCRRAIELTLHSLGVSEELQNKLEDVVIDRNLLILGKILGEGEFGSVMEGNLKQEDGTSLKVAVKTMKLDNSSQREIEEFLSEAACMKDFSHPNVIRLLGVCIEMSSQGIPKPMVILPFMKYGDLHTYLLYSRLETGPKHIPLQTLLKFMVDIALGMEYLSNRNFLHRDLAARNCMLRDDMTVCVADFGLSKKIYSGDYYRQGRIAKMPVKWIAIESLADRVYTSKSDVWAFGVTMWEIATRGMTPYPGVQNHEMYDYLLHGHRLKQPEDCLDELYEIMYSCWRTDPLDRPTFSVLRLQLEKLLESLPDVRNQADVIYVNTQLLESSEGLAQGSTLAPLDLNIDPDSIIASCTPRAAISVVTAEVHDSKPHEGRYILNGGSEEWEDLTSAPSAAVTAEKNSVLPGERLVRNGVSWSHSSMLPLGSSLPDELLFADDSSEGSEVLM

kinetic solubility = format: physicochemical; conditions: normal saline, pH 7.4

Structure (SMILES)	number of kinases inhibited by more than 50% (305 kinases)	effect on colony formation in soft agar, A549 NSCLC (A549 NSCLC cells)	effect on colony formation in soft agar, Molm-14 AML (Molm-14 AML cells)	decrease of Mer phospho-protein levels in bone marrow leukemia cells (Mer)	solubility kinetic (kinetic solubility) [µg/mL]
CCCCNc1ncc2c(-c3ccc(CN4CCN(C)CC4)cc3)cn([C@H]3CC[C@H](O)CC3)c2n1 [Compound 11]	Sixty-six	significant inhibition of colony formation	significant inhibition of colony formation	greater than 90%	38 (≈ 79.7 µM)
CCCCN(C)c1ncc2c(-c3ccc(CN4CCN(C)CC4)cc3)cn([C@H]3CC[C@H](O)CC3)c2n1 [Compound 20]	–	no significant effect	no significant effect	–	–

From paper PMC4148167 (Journal of Medicinal Chemistry, 2014)
